According to ChEMBL document CHEMBL1909046, “DrugMatrix in vitro pharmacology data”:

Tests used:
[1] = molecular target: Matrix metalloproteinase-9 (Homo sapiens, UniProt P14780); format: cell-based;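 note: inhibition of isolated MMP-9 enzyme activity toward a synthetic peptide substrate, from the DrugMatrix protease screening panel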
Caspase-1 = molecular target: T1, Caspase-1 (Homo sapiens, UniProt P29466); set-up: species or system Escherichia coli;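 note: Caspase-1 enzyme inhibition assay with a peptide substrate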
T1 sequence (P29466 whole entry): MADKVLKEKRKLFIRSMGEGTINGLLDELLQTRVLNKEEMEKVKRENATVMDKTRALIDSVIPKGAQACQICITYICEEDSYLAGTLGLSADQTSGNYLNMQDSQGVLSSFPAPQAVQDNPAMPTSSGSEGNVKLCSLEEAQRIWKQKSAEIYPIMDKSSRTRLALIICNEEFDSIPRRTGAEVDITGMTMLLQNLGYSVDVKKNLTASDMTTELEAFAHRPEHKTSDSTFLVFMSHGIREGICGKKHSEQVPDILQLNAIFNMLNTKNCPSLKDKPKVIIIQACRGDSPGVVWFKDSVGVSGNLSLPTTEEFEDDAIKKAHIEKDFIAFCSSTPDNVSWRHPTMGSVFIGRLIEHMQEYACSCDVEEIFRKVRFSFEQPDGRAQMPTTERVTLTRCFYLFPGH

Histamine H2 receptor = Histamine H2 receptor (Homo sapiens, UniProt P25021); format: cell membranes, CHO-K1, Membrane; details: cho-k1
Sequence of Histamine H2 receptor (P25021 whole entry): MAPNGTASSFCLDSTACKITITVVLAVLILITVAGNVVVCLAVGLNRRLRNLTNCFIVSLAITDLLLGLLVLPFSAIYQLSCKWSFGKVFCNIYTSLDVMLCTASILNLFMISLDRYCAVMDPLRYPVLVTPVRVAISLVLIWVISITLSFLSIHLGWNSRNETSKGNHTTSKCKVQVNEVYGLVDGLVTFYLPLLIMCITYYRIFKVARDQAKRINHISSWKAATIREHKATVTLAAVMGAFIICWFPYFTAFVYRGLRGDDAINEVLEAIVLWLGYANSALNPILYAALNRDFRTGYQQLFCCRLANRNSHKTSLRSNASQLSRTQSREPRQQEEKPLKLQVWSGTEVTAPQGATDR

[2] = molecular target: T2, C-X-C chemokine receptor type 2 (Homo sapiens, UniProt P25025); format: cell membranes, CHO-K1, Membrane; details: cho-k1
T2 sequence (P25025 whole entry): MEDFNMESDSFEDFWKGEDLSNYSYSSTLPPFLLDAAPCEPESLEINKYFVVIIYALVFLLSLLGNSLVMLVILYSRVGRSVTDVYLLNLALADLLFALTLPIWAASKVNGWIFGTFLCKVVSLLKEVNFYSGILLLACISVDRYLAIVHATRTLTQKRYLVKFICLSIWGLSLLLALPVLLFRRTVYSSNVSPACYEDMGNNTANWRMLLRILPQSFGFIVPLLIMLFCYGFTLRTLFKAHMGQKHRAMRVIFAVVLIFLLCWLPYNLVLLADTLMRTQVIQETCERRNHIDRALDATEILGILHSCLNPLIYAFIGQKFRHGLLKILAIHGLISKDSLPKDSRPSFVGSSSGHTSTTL

[3] = molecular target: T3, Vasoactive intestinal polypeptide receptor 1 (Homo sapiens, UniProt P32241); format: cell membranes, Membrane; details: ht-29
T3 sequence (P32241 whole entry): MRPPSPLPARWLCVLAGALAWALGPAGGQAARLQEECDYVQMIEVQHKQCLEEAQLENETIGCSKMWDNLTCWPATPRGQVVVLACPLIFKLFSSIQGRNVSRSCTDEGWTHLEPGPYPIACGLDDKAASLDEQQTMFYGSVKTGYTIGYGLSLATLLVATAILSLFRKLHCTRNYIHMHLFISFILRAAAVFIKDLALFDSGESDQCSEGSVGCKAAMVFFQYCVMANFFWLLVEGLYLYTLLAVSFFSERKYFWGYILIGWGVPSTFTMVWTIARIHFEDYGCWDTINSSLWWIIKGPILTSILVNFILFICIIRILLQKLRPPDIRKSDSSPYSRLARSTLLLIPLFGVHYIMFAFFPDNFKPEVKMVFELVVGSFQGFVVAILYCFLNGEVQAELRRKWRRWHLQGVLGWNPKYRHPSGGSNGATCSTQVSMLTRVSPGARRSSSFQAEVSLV

[4] = molecular target: T4, Muscarinic acetylcholine receptor M5 (Homo sapiens, UniProt P08912); format: cell membranes, CHO-K1, Membrane; details: cho-k1
T4 sequence (P08912 whole entry): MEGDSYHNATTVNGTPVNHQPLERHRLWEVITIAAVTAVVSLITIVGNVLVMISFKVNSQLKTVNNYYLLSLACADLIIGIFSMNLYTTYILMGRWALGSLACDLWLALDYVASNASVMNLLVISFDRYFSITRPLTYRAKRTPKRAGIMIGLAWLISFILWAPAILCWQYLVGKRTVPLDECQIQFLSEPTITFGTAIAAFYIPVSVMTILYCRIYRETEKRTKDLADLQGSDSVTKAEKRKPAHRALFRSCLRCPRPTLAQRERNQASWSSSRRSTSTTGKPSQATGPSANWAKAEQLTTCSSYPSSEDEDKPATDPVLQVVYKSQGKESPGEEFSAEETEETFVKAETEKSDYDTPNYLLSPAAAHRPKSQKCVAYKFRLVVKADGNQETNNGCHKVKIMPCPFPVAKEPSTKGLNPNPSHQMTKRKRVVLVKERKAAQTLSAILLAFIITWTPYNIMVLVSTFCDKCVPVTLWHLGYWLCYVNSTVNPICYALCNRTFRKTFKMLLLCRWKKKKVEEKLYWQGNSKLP

Measured: IC50
Note: in other assays of this panel Not Active means under 50% inhibition at 10 µM.

Sequence of Matrix metalloproteinase-9 (P14780 whole entry): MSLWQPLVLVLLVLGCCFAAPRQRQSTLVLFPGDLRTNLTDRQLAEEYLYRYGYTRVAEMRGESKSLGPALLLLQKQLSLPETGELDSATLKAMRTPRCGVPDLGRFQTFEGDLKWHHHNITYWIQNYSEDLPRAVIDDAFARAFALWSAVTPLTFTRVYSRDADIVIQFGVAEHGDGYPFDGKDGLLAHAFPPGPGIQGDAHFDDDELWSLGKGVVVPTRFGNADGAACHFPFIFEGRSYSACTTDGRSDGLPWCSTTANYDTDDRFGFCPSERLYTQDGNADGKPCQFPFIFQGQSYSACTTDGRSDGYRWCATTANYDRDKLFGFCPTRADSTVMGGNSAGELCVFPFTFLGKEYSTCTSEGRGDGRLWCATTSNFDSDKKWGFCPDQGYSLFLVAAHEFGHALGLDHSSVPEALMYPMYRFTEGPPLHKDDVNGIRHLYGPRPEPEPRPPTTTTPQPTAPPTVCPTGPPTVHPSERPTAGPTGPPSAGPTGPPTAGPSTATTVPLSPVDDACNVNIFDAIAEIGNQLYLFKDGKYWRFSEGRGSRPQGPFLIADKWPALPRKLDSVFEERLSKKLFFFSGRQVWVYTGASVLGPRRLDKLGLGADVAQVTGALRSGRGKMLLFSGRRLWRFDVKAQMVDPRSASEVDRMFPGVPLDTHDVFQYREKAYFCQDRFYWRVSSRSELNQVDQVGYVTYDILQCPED

CC(N)C12CC3CC(CC(C3)C1)C2 (stereo not drawn) [RIMANTADINE]
Not Active: all assays above

CS(=O)(=O)c1ccc(C2=C(c3ccccc3)C(=O)OC2)cc1 [ROFECOXIB]
Not Active: all assays above

CCOc1cc(N)c(Cl)cc1C(=O)NCC1CN(Cc2ccc(F)cc2)CCO1 (stereo not drawn) [MOSAPRIDE]
Not Active: all assays above

Cc1ccnc(NS(=O)(=O)c2ccc(N)cc2)n1 [SULFAMERAZINE]
Not Active: all assays above

OC[C@@H](O)[C@@H](O)[C@H](O)[C@H](O)CO [MANNITOL]
Not Active: all assays above

Oc1ccc(/C=C/c2cc(O)cc(O)c2)cc1 [RESVERATROL]
Not Active: all assays above

CC1=C(/C=C/C(C)=C/C=C/C(C)=C/C(=O)O)C(C)(C)CCC1 [TRETINOIN]
Not Active: all assays above

C=CCc1ccc2c(c1)OCO2 [SAFROLE]
Not Active: all assays above

CCN(CC)N=O [N-NITROSODIETHYLAMINE]
Not Active: all assays above

CCN1CCCC1CNC(=O)c1cc(S(N)(=O)=O)ccc1OC (stereo not drawn) [SULPIRIDE]
Not Active: all assays above

O=C1CC[C@@]2(O)[C@H]3Cc4ccc(O)c5c4[C@@]2(CCN3CC2CC2)[C@H]1O5 [NALTREXONE]
Not Active: all assays above

C[N+]1(C)[C@@H]2C[C@@H](OC(=O)[C@H](CO)c3ccccc3)C[C@H]1[C@@H]1O[C@@H]12.[Br-] [METHSCOPOLAMINE BROMIDE]
not listed: [4]
Not Active: all other assays above

CCN(CC)CCNC(=O)c1cc(Cl)c(N)cc1OC [METOCLOPRAMIDE]
Not Active: all assays above

O=C(OC[C@H]1O[C@@H](OC(=O)c2cc(O)c(O)c(OC(=O)c3cc(O)c(O)c(O)c3)c2)[C@H](OC(=O)c2cc(O)c(O)c(OC(=O)c3cc(O)c(O)c(O)c3)c2)[C@@H](OC(=O)c2cc(O)c(O)c(OC(=O)c3cc(O)c(O)c(O)c3)c2)[C@@H]1OC(=O)c1cc(O)c(O)c(OC(=O)c2cc(O)c(O)c(O)c2)c1)c1cc(O)c(O)c(OC(=O)c2cc(O)c(O)c(O)c2)c1 [TANNIC ACID]
Not Active: all assays above
